Experiment: Scanning electron microscope inspection of encapsulated granules
Format: physicochemical
Details: SEM
Protocol: NaNO2 granules (food grade E250, BASF) approximately 0.2-1.0 mm and zein (USP30/NF25, Rebain International Ltd) were used as supplied. NaNO2 granules were dried in a commercial oven for 12 hours at 60° C. to remove any residual moisture. NaNO2 granules (500 g) were coated using a pan coating process; zein (10%) was dissolved in a mixture of water (10%) and ethanol (80%). For coatings containing plasticizer, zein (9.9%) was dissolved in a mixture of water (10%) and ethanol (80%) and either glycerol, PVP or PEG 400 were added at 0.1% to make a mixture containing zein and one of the potential plasticizers. To coat the NaNO2, 500 g of granules were placed in a spherical pan, the pan was rotated at 20 revolutions per minute, the liquid encapsulant solution was sprayed onto the granules at one litre per hour while the whole was warmed to 40° C. by warm predried air directed onto the granule bed to progressively evaporate the solvents. Once all coating material was applied the granules continued to be rotated to ensure drying.
NaNO2 coated in each of the four different solutions outlined above as well as uncoated NaNO2 granules were assessed visually using a scanning electron microscope (SEM) (Philips XL30S FEG, Netherlands). Samples were sputter coated with gold for 2 min (Quorum Technologies Polaron SC 7640 sputter coater, England) and viewed at an accelerating voltage of 5 kV. […]

O=N[O-].[Na+] [Uncoated NaNO2 granules, sodium nitrite]
aggregation of granules (54x/55x and 250x magnification): strong tendency to aggregate | surface of granule / coat (cracks) (1000x magnification): covered in surface fissures
